The values below come from PubChem BioAssay (NCI).

SMILES strings stand for the structures.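 Tested at 5 concentrations; 48 h exposure; 96-well plates; endpoints linearly interpolated, else capped at highest concentration. TGI marks complete inhibition of growth.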 Where a SMILES comes first, the peptide text is derived from it. [ ]: non-standard residue; d: D form. The star is where a group is joined. Boc = CC(C)(C)OC(=O)*; Lac = C[CH](O)C(=O)O; OBn = c1ccc(CO*)cc1 Where only a bound is given, the exact number is not on record here.

Test systems include EKVX NSCLC; ACHN renal; M14 melanoma; KM12 colon; SF-539 CNS; RPMI-8226 leukemia; MALME-3M melanoma; HCT-116 colon; A498 renal; IGROV1 ovarian; MDA-MB-435; OVCAR-5 ovarian; LOX IMVI melanoma; T-47D breast.
Assay in all cases: NCI-60 cell line screen, 48 h

Consider `O=C1N(Cl)C(=O)C(c2ccc(Cl)cc2)(c2ccc(Cl)cc2)N1Cl`, for which the TGI in the experiment on EKVX NSCLC, in the experiment with ACHN renal, in the experiment on M14 melanoma, with KM12 colon, in the experiment on SF-539 CNS and in the experiment on RPMI-8226 leukemia was above 100 µM throughout. The TGI with MALME-3M melanoma, in the experiment with HCT-116 colon, in the experiment on A498 renal and with IGROV1 ovarian was above 100 µM throughout.
Consider `O=C(Nc1ccccc1)OCCN=C1c2ccccc2C(Br)C(Br)c2ccccc21` (stereo unspecified), for which the TGI with MDA-MB-435 was 17.1 µM; in the experiment on EKVX NSCLC it was 19.8 µM; in the experiment on ACHN renal, 20.6 µM; in the experiment on M14 melanoma it was 12.4 µM; with KM12 colon, 18.7 µM; in the experiment with SF-539 CNS it was 7.2 µM. The TGI with RPMI-8226 leukemia was 19.9 µM; in the experiment with OVCAR-5 ovarian it was above 31.6 µM; with MALME-3M melanoma, 16.3 µM; in the experiment with HCT-116 colon, 13.3 µM; in the experiment on A498 renal it was 18.1 µM; in the experiment on LOX IMVI melanoma, 13.4 µM. The TGI with IGROV1 ovarian was determined as 10.6 µM.
With `COC1(c2ccc(Cl)cc2)SC=C(C)n2c1noc2=O` (stereo unspecified), the TGI with MDA-MB-435, with EKVX NSCLC, with ACHN renal, with M14 melanoma, in the experiment with KM12 colon and with RPMI-8226 leukemia was above 100 µM in each case. Moreover, the TGI in the experiment with OVCAR-5 ovarian, in the experiment on MALME-3M melanoma, in the experiment with HCT-116 colon, in the experiment with A498 renal, with LOX IMVI melanoma and in the experiment on IGROV1 ovarian was above 100 µM in each case.
For `CC(OC(=O)C(Cc1ccccc1)NC(=O)C(Cc1ccccc1)NC(=O)OC(C)(C)C)C(=O)OCc1ccccc1` (stereo not drawn) (Boc-Phe-Phe-[Lac]-OBn; configuration not given here), the TGI in the experiment with T-47D breast, in the experiment with MDA-MB-435, in the experiment on M14 melanoma, in the experiment with KM12 colon, with RPMI-8226 leukemia and in the experiment on OVCAR-5 ovarian was above 100 µM in each case. Besides, the TGI in the experiment with MALME-3M melanoma, in the experiment with HCT-116 colon and in the experiment with IGROV1 ovarian was above 100 µM in each case.
Consider `S=C(N1CCN(c2ccc(Cl)c(Cl)c2)CC1)N1CCN(c2ccc(Cl)c(Cl)c2)CC1`, for which the TGI is 23.3 µM in the experiment with T-47D breast; 29 µM with MDA-MB-435; 15.2 µM with EKVX NSCLC; 27.4 µM with ACHN renal; 32.3 µM with M14 melanoma; 27.1 µM in the experiment with KM12 colon. In addition, the TGI with RPMI-8226 leukemia turned out to be 39.4 µM; with OVCAR-5 ovarian, 44.7 µM; in the experiment with MALME-3M melanoma, 28.1 µM; with HCT-116 colon it was 19.4 µM; with IGROV1 ovarian, 22.5 µM.
As for `CC1(C)CCc2ccc(OCCC(=O)O)cc2O1`, the TGI in the experiment on EKVX NSCLC, in the experiment with ACHN renal, in the experiment with M14 melanoma, in the experiment with KM12 colon, with SF-539 CNS and in the experiment with RPMI-8226 leukemia was above 100 µM throughout. For the same molecule, the TGI in the experiment on OVCAR-5 ovarian, in the experiment with MALME-3M melanoma, with HCT-116 colon, in the experiment with LOX IMVI melanoma and in the experiment with IGROV1 ovarian was above 100 µM throughout.
Turning to `COc1cc(NC(C)c2ccc3c(c2)OCCO3)cc(OC)c1OC` (stereo unspecified), the TGI is 32 µM with MDA-MB-435; above 100 µM with EKVX NSCLC; above 100 µM in the experiment with ACHN renal; above 100 µM in the experiment with M14 melanoma; above 100 µM in the experiment with KM12 colon; 60.4 µM in the experiment with SF-539 CNS. The TGI in the experiment on RPMI-8226 leukemia is 84.6 µM; in the experiment with OVCAR-5 ovarian, above 100 µM; with MALME-3M melanoma, 67.8 µM; with HCT-116 colon, above 100 µM; in the experiment on A498 renal, above 100 µM; in the experiment on LOX IMVI melanoma, above 100 µM. Further, the TGI in the experiment with IGROV1 ovarian was above 100 µM.
Regarding `CCCN(CCC)CCc1ccc(OC2=CCN(C)CC2)cc1`, the TGI with T-47D breast is above 100 µM; in the experiment on MDA-MB-435, above 100 µM; in the experiment on EKVX NSCLC, above 100 µM; with ACHN renal it was above 100 µM; in the experiment with M14 melanoma, 29.1 µM; with KM12 colon, above 100 µM. Also, the TGI in the experiment with RPMI-8226 leukemia is above 100 µM; with OVCAR-5 ovarian, above 100 µM; with MALME-3M melanoma it was 32.4 µM; with HCT-116 colon, above 100 µM; in the experiment with LOX IMVI melanoma, 89.8 µM; in the experiment with IGROV1 ovarian, above 100 µM.
Regarding `O=[N+]([O-])c1cccc2nc3ccccc3c(NCCCCNc3c4ccccc4nc4cccc([N+](=O)[O-])c34)c12`, the TGI with T-47D breast worked out at 1.04 µM; with EKVX NSCLC, 2.11 µM; in the experiment with ACHN renal it was 0.0913 µM; in the experiment with M14 melanoma, 0.199 µM; in the experiment with KM12 colon, 0.204 µM; with SF-539 CNS it was 0.102 µM. The TGI was 1.64 µM in the experiment on OVCAR-5 ovarian; 0.255 µM in the experiment on MALME-3M melanoma; 0.0347 µM in the experiment with HCT-116 colon; 0.258 µM in the experiment on LOX IMVI melanoma; 2.2 µM with IGROV1 ovarian.
`CN(C)CCNc1ccc([N+](=O)[O-])c2sc3ccccc3c(=O)c12`: the TGI in the experiment on T-47D breast is above 100 µM; in the experiment with MDA-MB-435, 27.4 µM; with EKVX NSCLC, 25.2 µM; with ACHN renal it was 13.2 µM; with M14 melanoma, 46.8 µM; with KM12 colon it was above 100 µM. The TGI in the experiment on SF-539 CNS turned out to be 13.7 µM; in the experiment on RPMI-8226 leukemia, 7.52 µM; in the experiment on OVCAR-5 ovarian, 14.6 µM; in the experiment on MALME-3M melanoma it was 17.9 µM; in the experiment with HCT-116 colon, 11.3 µM; in the experiment on IGROV1 ovarian it was 7.66 µM.
In the case of `CCCCS(=O)(=O)CCC(N)P(=O)(O)O` (stereo unspecified), the TGI with T-47D breast, with MDA-MB-435, in the experiment with EKVX NSCLC, with ACHN renal, with M14 melanoma and in the experiment with KM12 colon was above 100 µM each time. Besides, the TGI with RPMI-8226 leukemia, with OVCAR-5 ovarian, with MALME-3M melanoma, in the experiment on HCT-116 colon, with LOX IMVI melanoma and in the experiment on IGROV1 ovarian was above 100 µM each time.
